Test results taken from patent publication US20120029187A1, “HALOALKYLSULFONANILIDE DERIVATIVE” (Nissan Chemical Industries, Ltd., priority 2009, published 2012).

Experiments:
Type in all cases: in vivo
bulrush [1] = assay: Test Example 1: herbicidal effects in preemergence treatment under submerged conditions; settings: dose 2.52 g/a
Procedure, shortened: (§1)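 Submerged conditions, 4 cm water over alluvial soil. Weeds sown and 2.5-leaf rice transplanted; compound applied preemergence to water surface, doses in g per are. Greenhouse, 25 to 30° C., three weeks, then 0–5 mortality rating.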

ducksalad [2] = assay: as above; settings: dose 2.52 g/a
Procedure, shortened: as §1

barnyardgrass [3] = assay: as above; settings: dose 2.52 g/a
Procedure, shortened: as §1

transplanted rice = assay: Test Example 1: preemergence treatment under submerged conditions, effect on crop; settings: dose 2.52 g/a
Procedure, shortened: as §1

velvetleaf [4] = assay: Test Example 4: herbicidal effect in foliage treatment; settings: dose 3.2 g/a, three weeks after application
Procedure, shortened: (§2)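 A uniform foliar spray of emulsifiable concentrate, diluted with water to give the stated g/a dose, was applied to plants raised for 14 days from seed in sterilized diluvial soil at 25 to 30° C. Herbicidal effects were scored three weeks later.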

giant foxtail [5] = assay: as above; settings: dose 3.2 g/a, three weeks after application
Procedure, shortened: as §2

common chickweed [6] = assay: as above; settings: dose 3.2 g/a, three weeks after application
Procedure, shortened: as §2

common lambsquater [7] = assay: as above; settings: dose 3.2 g/a, three weeks after application
Procedure, shortened: as §2

wild oat [8] = assay: as above; settings: dose 3.2 g/a, three weeks after application
Procedure, shortened: as §2

water foxtail [9] = assay: as above; settings: dose 3.2 g/a, three weeks after application
Procedure, shortened: as §2

large crabgrass [10] = assay: as above; settings: dose 3.2 g/a, three weeks after application
Procedure, shortened: as §2

common ragweed [11] = assay: as above; settings: dose 3.2 g/a, three weeks after application
Procedure, shortened: as §2

posumbu knotweed = assay: as above; settings: dose 3.2 g/a, three weeks after application
Procedure, shortened: as §2

beadstraw [12] = assay: as above; settings: dose 3.2 g/a, three weeks after application
Procedure, shortened: as §2

redroot pigweed [13] = assay: as above; settings: dose 3.2 g/a, three weeks after application
Procedure, shortened: as §2

Italian ryegrass [14] = assay: as above; settings: dose 3.2 g/a, three weeks after application
Procedure, shortened: as §2

barnyardgrass [15] = assay: as above; settings: dose 3.2 g/a, three weeks after application
Procedure, shortened: as §2

velvetleaf [16] = assay: Test Example 3: herbicidal effects in soil treatment; settings: dose 3.2 g/a
Procedure, shortened: (§3)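 Seeds were sown in sterilized diluvial soil and covered with about 1.5 cm of soil. Compounds, formulated as emulsifiable concentrates and diluted with water, were sprayed evenly over the soil surface at set doses in g/a. Herbicidal effect was scored on a rating scale three weeks later.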

giant foxtail [17] = assay: as above; settings: dose 3.2 g/a
Procedure, shortened: as §3

common chickweed [18] = assay: as above; settings: dose 3.2 g/a
Procedure, shortened: as §3

common lambsquater [19] = assay: as above; settings: dose 3.2 g/a
Procedure, shortened: as §3

wild oat [20] = assay: as above; settings: dose 3.2 g/a
Procedure, shortened: as §3

water foxtail [21] = assay: as above; settings: dose 3.2 g/a
Procedure, shortened: as §3

large crabgrass [22] = assay: as above; settings: dose 3.2 g/a
Procedure, shortened: as §3

common ragweed [23] = assay: as above; settings: dose 3.2 g/a
Procedure, shortened: as §3

beadstraw [24] = assay: as above; settings: dose 3.2 g/a
Procedure, shortened: as §3

redroot pigweed [25] = assay: as above; settings: dose 3.2 g/a
Procedure, shortened: as §3

Italian ryegrass [26] = assay: as above; settings: dose 3.2 g/a
Procedure, shortened: as §3

barnyardgrass [27] = assay: as above; settings: dose 3.2 g/a
Procedure, shortened: as §3

bulrush [28] = assay: Test Example 2: herbicidal effects during the vegetation period under submerged conditions; settings: treatment during the vegetation period under submerged conditions; dose 2.52 g/a
Procedure, shortened: (§4)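 Barnyardgrass, bulrush and ducksalad were co-sown in alluvial soil flooded to 4 cm and grown in a greenhouse at 25 to 30° C. At the 1- or 2-leaf stage, water-diluted emulsifiable concentrates went onto the water surface at set doses (g/a). Herbicidal effect was scored three weeks later on a graded scale.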

ducksalad [29] = assay: as above; settings: treatment during the vegetation period under submerged conditions; dose 2.52 g/a
Procedure, shortened: as §4

barnyardgrass [30] = assay: as above; settings: treatment during the vegetation period under submerged conditions; dose 2.52 g/a
Procedure, shortened: as §4

Row | SMILES | B: bulrush, herbicidal effect (evaluation scale 0-5) (bulrush [1]) | C: ducksalad, herbicidal effect (evaluation scale 0-5) (ducksalad [2]) | A: barnyardgrass, herbicidal effect (evaluation scale 0-5) (barnyardgrass [3]) | a: transplanted rice, effect on crop (evaluation scale 0-5) (transplanted rice) | I: velvetleaf, herbicidal effect (velvetleaf [4]) | E: giant foxtail, herbicidal effect (giant foxtail [5]) | N: common chickweed, herbicidal effect (common chickweed [6]) | L: common lambsquater, herbicidal effect (common lambsquater [7]) | F: wild oat, herbicidal effect (wild oat [8]) | G: water foxtail, herbicidal effect (water foxtail [9]) | D: large crabgrass, herbicidal effect (large crabgrass [10]) | J: common ragweed, herbicidal effect (common ragweed [11]) | M: posumbu knotweed, herbicidal effect (posumbu knotweed) | O: beadstraw, herbicidal effect (beadstraw [12]) | K: redroot pigweed, herbicidal effect (redroot pigweed [13]) | H: Italian ryegrass, herbicidal effect (Italian ryegrass [14]) | A: barnyardgrass, herbicidal effect (barnyardgrass [15]) | I: velvetleaf, herbicidal effect (evaluation scale 0-5) (velvetleaf [16]) | E: giant foxtail, herbicidal effect (evaluation scale 0-5) (giant foxtail [17]) | N: common chickweed, herbicidal effect (evaluation scale 0-5) (common chickweed [18]) | other results
1 | COC(=O)N(c1ccccc1CN1COC(C)(C)CC1=O)S(=O)(=O)C(F)(F)F [II-22] | 5 (mortality of 90% or above (nearly complete death)) | 5 (mortality of 90% or above (nearly complete death)) | 5 (mortality of 90% or above (nearly complete death)) | 0 (mortality of less than 5% (almost ineffective)) | 5 (mortality of 90% or above (nearly complete death)) | 5 (mortality of 90% or above (nearly complete death)) | 3 (mortality of at least 40% and less than 70%) | 3 (mortality of at least 40% and less than 70%) | 0 (mortality of less than 5% (almost ineffective)) | 5 (mortality of 90% or above (nearly complete death)) | 5 (mortality of 90% or above (nearly complete death)) | 4 (mortality of at least 70% and less than 90%) | 3 (mortality of at least 40% and less than 70%) | 5 (mortality of 90% or above (nearly complete death)) | 0 (mortality of less than 5% (almost ineffective)) | 4 (mortality of at least 70% and less than 90%) | 5 (mortality of 90% or above (nearly complete death)) | 5 (mortality of 90% or above (nearly complete death)) | 3 (mortality of at least 40% and less than 70%) | 4 (mortality of at least 70% and less than 90%) | L: common lambsquater, herbicidal effect (evaluation scale 0-5) (common lambsquater [19]): 4 (mortality of at least 70% and less than 90%); F: wild oat, herbicidal effect (evaluation scale 0-5) (wild oat [20]): 0 (mortality of less than 5% (almost ineffective)); G: water foxtail, herbicidal effect (evaluation scale 0-5) (water foxtail [21]): 5 (mortality of 90% or above (nearly complete death)); D: large crabgrass, herbicidal effect (evaluation scale 0-5) (large crabgrass [22]): 5 (mortality of 90% or above (nearly complete death)); J: common ragweed, herbicidal effect (evaluation scale 0-5) (common ragweed [23]): 3 (mortality of at least 40% and less than 70%); O: beadstraw, herbicidal effect (evaluation scale 0-5) (beadstraw [24]): 5 (mortality of 90% or above (nearly complete death)); K: redroot pigweed, herbicidal effect (evaluation scale 0-5) (redroot pigweed [25]): 0 (mortality of less than 5% (almost ineffective)); H: Italian ryegrass, herbicidal effect (evaluation scale 0-5) (Italian ryegrass [26]): 5 (mortality of 90% or above (nearly complete death)); A: barnyardgrass, herbicidal effect (evaluation scale 0-5) (barnyardgrass [27]): 5 (mortality of 90% or above (nearly complete death)); B: bulrush, herbicidal effect (evaluation scale 0-5) (bulrush [28]): 5 (mortality of 90% or above (nearly complete death)); C: ducksalad, herbicidal effect (evaluation scale 0-5) (ducksalad [29]): 5 (mortality of 90% or above (nearly complete death)); A: barnyardgrass, herbicidal effect (evaluation scale 0-5) (barnyardgrass [30]): 5 (mortality of 90% or above (nearly complete death))
2 | CCCCOC(=O)N(c1ccccc1CN1COC(C)(C)CC1=O)S(=O)(=O)C(F)(F)F [II-25] | 5 (mortality of 90% or above (nearly complete death)) | 5 (mortality of 90% or above (nearly complete death)) | 5 (mortality of 90% or above (nearly complete death)) | 0 (mortality of less than 5% (almost ineffective)) | 4 (mortality of at least 70% and less than 90%) | 5 (mortality of 90% or above (nearly complete death)) | 4 (mortality of at least 70% and less than 90%) | 1 (mortality of at least 5% and less than 20%) | 0 (mortality of less than 5% (almost ineffective)) | 5 (mortality of 90% or above (nearly complete death)) | 5 (mortality of 90% or above (nearly complete death)) | 3 (mortality of at least 40% and less than 70%) | 1 (mortality of at least 5% and less than 20%) | 5 (mortality of 90% or above (nearly complete death)) | 0 (mortality of less than 5% (almost ineffective)) | 0 (mortality of less than 5% (almost ineffective)) | 5 (mortality of 90% or above (nearly complete death)) | 5 (mortality of 90% or above (nearly complete death)) | 3 (mortality of at least 40% and less than 70%) | 4 (mortality of at least 70% and less than 90%) | L: common lambsquater, herbicidal effect (evaluation scale 0-5) (common lambsquater [19]): 0 (mortality of less than 5% (almost ineffective)); F: wild oat, herbicidal effect (evaluation scale 0-5) (wild oat [20]): 0 (mortality of less than 5% (almost ineffective)); G: water foxtail, herbicidal effect (evaluation scale 0-5) (water foxtail [21]): 5 (mortality of 90% or above (nearly complete death)); D: large crabgrass, herbicidal effect (evaluation scale 0-5) (large crabgrass [22]): 4 (mortality of at least 70% and less than 90%); J: common ragweed, herbicidal effect (evaluation scale 0-5) (common ragweed [23]): 4 (mortality of at least 70% and less than 90%); O: beadstraw, herbicidal effect (evaluation scale 0-5) (beadstraw [24]): 5 (mortality of 90% or above (nearly complete death)); K: redroot pigweed, herbicidal effect (evaluation scale 0-5) (redroot pigweed [25]): 0 (mortality of less than 5% (almost ineffective)); H: Italian ryegrass, herbicidal effect (evaluation scale 0-5) (Italian ryegrass [26]): 1 (mortality of at least 5% and less than 20%); A: barnyardgrass, herbicidal effect (evaluation scale 0-5) (barnyardgrass [27]): 4 (mortality of at least 70% and less than 90%); B: bulrush, herbicidal effect (evaluation scale 0-5) (bulrush [28]): 5 (mortality of 90% or above (nearly complete death)); C: ducksalad, herbicidal effect (evaluation scale 0-5) (ducksalad [29]): 5 (mortality of 90% or above (nearly complete death)); A: barnyardgrass, herbicidal effect (evaluation scale 0-5) (barnyardgrass [30]): 5 (mortality of 90% or above (nearly complete death))
